How the values were obtained:
Parameters in all cases: Invitrogen kinase panel, per cent inhibition of kinase activity
Settings in all cases: 10 µM, inhibitor
[1] = target: CHEK2 (Homo sapiens, UniProt O96017)
Procedure: (§1) To discover a potent and selective BDK inhibitor, a subset of the Pfizer compound collection was screened. […] Off target activity was assessed in both CEREP and kinase panels (Supplementary Tables 2, 3).

[2] = target: T1, JAK3 (Homo sapiens, UniProt P52333)
T1 sequence (P52333 1-1124): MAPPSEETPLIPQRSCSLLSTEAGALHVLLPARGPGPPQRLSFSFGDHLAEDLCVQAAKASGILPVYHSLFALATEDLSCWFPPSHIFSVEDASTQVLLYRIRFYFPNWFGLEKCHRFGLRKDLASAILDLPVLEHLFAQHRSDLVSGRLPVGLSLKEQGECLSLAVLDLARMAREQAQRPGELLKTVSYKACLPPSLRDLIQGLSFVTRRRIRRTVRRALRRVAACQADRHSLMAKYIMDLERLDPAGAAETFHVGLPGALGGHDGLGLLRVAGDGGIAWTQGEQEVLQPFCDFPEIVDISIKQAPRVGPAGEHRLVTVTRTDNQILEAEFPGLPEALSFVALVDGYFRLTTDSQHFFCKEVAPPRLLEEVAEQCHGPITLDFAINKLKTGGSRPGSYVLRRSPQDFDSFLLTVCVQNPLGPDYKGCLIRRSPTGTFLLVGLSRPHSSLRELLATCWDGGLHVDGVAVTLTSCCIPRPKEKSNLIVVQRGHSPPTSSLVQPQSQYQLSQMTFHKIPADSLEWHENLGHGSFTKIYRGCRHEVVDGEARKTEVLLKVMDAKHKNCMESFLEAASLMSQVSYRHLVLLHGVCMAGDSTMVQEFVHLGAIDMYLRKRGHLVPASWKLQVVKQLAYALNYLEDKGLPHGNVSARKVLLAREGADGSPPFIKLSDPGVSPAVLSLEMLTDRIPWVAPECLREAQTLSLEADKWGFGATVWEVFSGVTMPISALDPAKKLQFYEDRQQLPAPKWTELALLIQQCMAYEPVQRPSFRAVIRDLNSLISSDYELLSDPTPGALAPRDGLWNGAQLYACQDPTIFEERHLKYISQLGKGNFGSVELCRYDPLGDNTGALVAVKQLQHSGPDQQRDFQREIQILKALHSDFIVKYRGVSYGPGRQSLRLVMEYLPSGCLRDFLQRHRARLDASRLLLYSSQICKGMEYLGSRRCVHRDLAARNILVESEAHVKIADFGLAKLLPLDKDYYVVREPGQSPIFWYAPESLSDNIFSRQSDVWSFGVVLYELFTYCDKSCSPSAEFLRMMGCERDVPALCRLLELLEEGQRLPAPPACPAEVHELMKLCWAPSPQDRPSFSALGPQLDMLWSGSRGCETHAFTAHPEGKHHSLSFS
Procedure: as §1

[3] = target: MAPK12 (Homo sapiens, UniProt P53778)
MAPK12, sequence (P53778 whole entry): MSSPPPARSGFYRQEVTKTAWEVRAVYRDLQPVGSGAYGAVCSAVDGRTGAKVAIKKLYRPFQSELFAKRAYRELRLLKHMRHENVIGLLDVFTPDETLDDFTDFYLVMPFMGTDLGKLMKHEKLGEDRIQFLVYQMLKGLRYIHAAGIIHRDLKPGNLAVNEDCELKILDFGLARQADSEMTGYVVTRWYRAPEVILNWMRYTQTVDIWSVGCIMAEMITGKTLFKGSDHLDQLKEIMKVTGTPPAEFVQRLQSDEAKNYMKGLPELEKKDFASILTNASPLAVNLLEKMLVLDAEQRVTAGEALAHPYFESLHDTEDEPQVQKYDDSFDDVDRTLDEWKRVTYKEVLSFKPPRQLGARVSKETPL
Procedure: as §1

[4] = target: AKT2 (Homo sapiens, UniProt P31751)
AKT2, sequence (P31751 whole entry): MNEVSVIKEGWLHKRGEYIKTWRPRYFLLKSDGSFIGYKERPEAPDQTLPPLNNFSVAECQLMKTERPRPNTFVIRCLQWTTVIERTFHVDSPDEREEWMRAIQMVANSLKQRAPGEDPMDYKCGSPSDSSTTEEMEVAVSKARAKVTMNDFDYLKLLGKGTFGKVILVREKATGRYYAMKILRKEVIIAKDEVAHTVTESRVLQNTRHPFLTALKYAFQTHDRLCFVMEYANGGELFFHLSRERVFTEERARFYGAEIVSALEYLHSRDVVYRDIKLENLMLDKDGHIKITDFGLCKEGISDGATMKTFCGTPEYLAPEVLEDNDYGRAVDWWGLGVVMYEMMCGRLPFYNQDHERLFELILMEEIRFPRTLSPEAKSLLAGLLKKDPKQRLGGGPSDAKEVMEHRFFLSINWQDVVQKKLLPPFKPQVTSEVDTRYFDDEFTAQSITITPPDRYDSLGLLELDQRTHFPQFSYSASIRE
Procedure: as §1

[5] = target: PI4KB (Homo sapiens, UniProt Q9UBF8)
PI4KB, sequence (Q9UBF8 whole entry): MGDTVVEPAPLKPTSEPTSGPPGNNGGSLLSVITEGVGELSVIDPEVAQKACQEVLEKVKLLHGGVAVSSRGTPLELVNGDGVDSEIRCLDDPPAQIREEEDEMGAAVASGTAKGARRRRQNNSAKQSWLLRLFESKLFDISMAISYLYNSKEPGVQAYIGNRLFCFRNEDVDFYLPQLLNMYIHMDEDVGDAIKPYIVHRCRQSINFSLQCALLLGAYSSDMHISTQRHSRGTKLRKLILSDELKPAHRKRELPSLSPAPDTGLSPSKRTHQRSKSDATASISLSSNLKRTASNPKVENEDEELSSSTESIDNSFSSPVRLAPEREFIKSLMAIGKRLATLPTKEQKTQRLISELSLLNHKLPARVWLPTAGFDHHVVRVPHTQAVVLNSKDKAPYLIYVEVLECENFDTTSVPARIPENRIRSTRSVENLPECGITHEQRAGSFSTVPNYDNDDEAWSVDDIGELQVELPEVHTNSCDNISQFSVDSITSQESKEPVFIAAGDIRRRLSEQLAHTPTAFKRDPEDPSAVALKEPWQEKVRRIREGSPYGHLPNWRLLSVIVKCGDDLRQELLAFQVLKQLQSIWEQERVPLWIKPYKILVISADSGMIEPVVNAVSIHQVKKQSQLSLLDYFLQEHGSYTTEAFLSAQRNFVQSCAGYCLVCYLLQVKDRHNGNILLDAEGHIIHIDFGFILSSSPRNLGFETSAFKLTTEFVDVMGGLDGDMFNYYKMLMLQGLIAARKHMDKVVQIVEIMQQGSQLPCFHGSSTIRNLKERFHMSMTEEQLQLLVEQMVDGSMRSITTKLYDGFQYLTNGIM
Procedure: as §1

[6] = target: T2, MST4 (Homo sapiens, UniProt Q9P289)
T2 construct: gene STK26
T2 sequence (Q9P289 whole entry): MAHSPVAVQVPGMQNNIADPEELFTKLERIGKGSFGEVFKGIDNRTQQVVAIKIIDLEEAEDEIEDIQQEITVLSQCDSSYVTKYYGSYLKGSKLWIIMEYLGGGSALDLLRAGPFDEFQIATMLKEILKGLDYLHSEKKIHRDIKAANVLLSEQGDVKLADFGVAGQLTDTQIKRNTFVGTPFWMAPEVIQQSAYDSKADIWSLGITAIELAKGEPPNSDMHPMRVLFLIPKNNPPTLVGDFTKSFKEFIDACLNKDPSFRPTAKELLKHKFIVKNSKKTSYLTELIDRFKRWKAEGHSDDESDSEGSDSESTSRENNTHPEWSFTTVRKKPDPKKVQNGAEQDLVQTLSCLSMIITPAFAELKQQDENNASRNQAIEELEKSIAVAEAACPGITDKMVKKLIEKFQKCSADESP
Procedure: as §1

[7] = target: T3, TAOK2 (Homo sapiens, UniProt Q9UL54)
T3 sequence (Q9UL54 1-1235): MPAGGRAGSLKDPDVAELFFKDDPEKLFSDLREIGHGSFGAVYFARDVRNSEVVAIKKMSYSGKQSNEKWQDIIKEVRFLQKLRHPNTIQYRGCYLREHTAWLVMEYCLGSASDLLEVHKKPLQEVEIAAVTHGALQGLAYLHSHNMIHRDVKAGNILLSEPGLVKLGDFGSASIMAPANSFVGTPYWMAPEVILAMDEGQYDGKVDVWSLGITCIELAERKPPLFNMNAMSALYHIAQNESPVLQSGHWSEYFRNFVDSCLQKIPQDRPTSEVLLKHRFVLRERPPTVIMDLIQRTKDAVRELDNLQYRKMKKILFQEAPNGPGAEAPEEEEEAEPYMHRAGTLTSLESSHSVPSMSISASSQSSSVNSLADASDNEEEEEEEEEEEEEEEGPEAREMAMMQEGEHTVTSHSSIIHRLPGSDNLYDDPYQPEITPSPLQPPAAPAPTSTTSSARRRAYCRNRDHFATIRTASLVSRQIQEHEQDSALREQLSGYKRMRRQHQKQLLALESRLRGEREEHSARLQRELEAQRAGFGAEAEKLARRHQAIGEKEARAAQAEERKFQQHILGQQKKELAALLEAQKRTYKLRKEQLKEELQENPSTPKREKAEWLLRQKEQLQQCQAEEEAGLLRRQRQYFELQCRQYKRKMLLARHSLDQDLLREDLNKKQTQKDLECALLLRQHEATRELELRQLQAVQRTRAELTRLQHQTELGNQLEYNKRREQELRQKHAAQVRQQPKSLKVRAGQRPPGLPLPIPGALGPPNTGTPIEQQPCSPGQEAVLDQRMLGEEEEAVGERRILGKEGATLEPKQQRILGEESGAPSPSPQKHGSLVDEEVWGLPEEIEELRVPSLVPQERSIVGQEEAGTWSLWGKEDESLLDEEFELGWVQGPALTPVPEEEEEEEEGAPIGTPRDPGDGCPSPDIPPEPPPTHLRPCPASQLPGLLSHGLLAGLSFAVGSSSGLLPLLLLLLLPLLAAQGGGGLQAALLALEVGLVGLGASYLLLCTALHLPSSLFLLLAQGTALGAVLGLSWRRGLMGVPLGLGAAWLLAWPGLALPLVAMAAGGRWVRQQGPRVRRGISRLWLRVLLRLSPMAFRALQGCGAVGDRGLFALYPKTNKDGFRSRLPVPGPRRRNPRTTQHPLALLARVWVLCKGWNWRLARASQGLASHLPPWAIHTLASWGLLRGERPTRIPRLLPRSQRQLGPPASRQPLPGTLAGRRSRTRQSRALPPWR
Procedure: as §1

CHEK2, sequence (O96017 whole entry): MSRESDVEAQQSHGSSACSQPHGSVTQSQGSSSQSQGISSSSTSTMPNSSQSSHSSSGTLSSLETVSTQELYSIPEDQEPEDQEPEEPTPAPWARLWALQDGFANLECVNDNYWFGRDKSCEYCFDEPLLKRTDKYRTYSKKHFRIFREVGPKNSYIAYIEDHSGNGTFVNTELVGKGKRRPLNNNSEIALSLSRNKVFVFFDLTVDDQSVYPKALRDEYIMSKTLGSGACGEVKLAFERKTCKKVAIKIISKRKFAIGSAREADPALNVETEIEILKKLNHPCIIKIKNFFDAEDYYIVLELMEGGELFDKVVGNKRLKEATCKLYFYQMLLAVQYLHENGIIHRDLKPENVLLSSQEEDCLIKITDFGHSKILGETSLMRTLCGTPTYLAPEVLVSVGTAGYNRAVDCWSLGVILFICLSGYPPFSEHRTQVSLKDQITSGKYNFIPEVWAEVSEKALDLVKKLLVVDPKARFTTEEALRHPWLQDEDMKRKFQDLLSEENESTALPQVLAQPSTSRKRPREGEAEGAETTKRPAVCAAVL

O=C(O)c1sc2cc(F)sc2c1Cl [PF-07208254, 3-chloro-5-fluorothieno[3,2-b]thiophene-2-carboxylic acid]
ATP = 1 mM % Inhibition PF-07208254 [1]: -0.7% | ATP = Km % Inhibition PF-07208254 [1]: 6.7% | ATP = 1 mM % Inhibition PF-07208254 [2]: -4.1% | ATP = Km % Inhibition PF-07208254 [2]: 0.9% | ATP = Km % Inhibition PF-07208254 [3]: 13.3% | ATP = Km % Inhibition PF-07208254 [4]: 0.2% | ATP = Km % Inhibition PF-07208254 [5]: 7.9% | ATP = 1 mM % Inhibition PF-07208254 [6]: 3.7% | ATP = Km % Inhibition PF-07208254 [6]: 16.7% | ATP = 1 mM % Inhibition PF-07208254 [7]: 1.4% | ATP = Km % Inhibition PF-07208254 [7]: -2.5%

CCC1(COc2ccc(-c3csc(-c4ccccc4C(=O)O)n3)cn2)CC1 [PF-07247685, 2-(4-{6-[(1-ethylcyclopropyl)methoxy]pyridin-3-yl}-1,3-thiazol-2-yl)benzoic acid]
ATP = 1 mM % Inhibition PF-07247685 [1]: -0.2% | ATP = Km % Inhibition PF-07247685 [1]: 3.8% | ATP = 1 mM % Inhibition PF-07247685 [2]: -0.0% | ATP = Km % Inhibition PF-07247685 [2]: 0.8% | ATP = Km % Inhibition PF-07247685 [3]: 4.6% | ATP = Km % Inhibition PF-07247685 [4]: 5.5% | ATP = Km % Inhibition PF-07247685 [5]: 7.1% | ATP = 1 mM % Inhibition PF-07247685 [6]: -2.9% | ATP = Km % Inhibition PF-07247685 [6]: 2.9% | ATP = 1 mM % Inhibition PF-07247685 [7]: -1.8% | ATP = Km % Inhibition PF-07247685 [7]: -4.7%
